Measured values taken from paper PMC8134453.
“Also recorded” adds a separate entry of the source. Like-named read-outs stand apart in the source and are kept apart here.

Key:
[1] = molecular target: T1, Jack bean (JB) urease (Canavalia ensiformis, UniProt P07374); experiment: Urease inhibition, modified Berthelot spectrophotometric method; type: biochemical
T1 construct: purchased Sigma-Aldrich (USA)
Method: All used material and JB urease (EC 3.5.1.5) were purchased from Sigma–Aldrich (USA). Potassium phosphate buffer (PPB) solution with concentration 100 mM and pH = 7.4 was prepared in distilled water. […] The enzymatic reactions were performed in PPB solution which reach to the 985 μL by adding urea (850 μL) and the synthesized compound (100 μL, 0–10 mg/mL). Then, urease (15 μL) was added and the concentration of liberated ammonia was measured after 60 min. The corresponding concentration of ammonia was determined by addition of the incubated solution (100 μL) to the mixture of 500 μL of solution I (5.0 g phenol and 25.0 mg sodium nitroprusside in 500 mL water) and 500 μL of solution II (2.5 g sodium hydroxide and 4.2 mL sodium hypochlorite (5% chlorine) in 500 mL water) which was incubated at 37 °C for 30 min. The absorbance was obtained by measuring indophenols. The activity of uninhibited JB urease was considered as the control activity of 100%. The inhibition assays were conducted according to this formula: I (%) = [1 − (T/C)] × 100; where I (%) is the enzyme inhibition, T (test) is the absorbance of the analyzed compounds in the presence of urease solution, and C (control) is the absorbance of the solvent in the presence of urease solution. Data were expressed as mean ± […] and run in triplicate. […] Thiourea and hydroxyurea were used as the standard inhibitors for urease.

[2] = no reference given; cited from earlier work
[3] = molecular target: T1, Jack bean (JB) urease; experiment: Urease kinetic study (Lineweaver–Burk plots); type: biochemical
Method: The inhibition mode and Ki value were determined by Lineweaver–Burk plots and secondary re-plotting of the mentioned plots, respectively.
All used material and JB urease (EC 3.5.1.5) were purchased from Sigma–Aldrich (USA). Potassium phosphate buffer (PPB) solution with concentration 100 mM and pH = 7.4 was prepared in distilled water. […] The enzymatic reactions were performed in PPB solution which reach to the 985 μL by adding urea (850 μL) and the synthesized compound (100 μL, 0–10 mg/mL). Then, urease (15 μL) was added and the concentration of liberated ammonia was measured after 60 min. The corresponding concentration of ammonia was determined by addition of the incubated solution (100 μL) to the mixture of 500 μL of solution I (5.0 g phenol and 25.0 mg sodium nitroprusside in 500 mL water) and 500 μL of solution II (2.5 g sodium hydroxide and 4.2 mL sodium hypochlorite (5% chlorine) in 500 mL water) which was incubated at 37 °C for 30 min. The absorbance was obtained by measuring indophenols. The activity of uninhibited JB urease was considered as the control activity of 100%. The inhibition assays were conducted according to this formula: I (%) = [1 − (T/C)] × 100; where I (%) is the enzyme inhibition, T (test) is the absorbance of the analyzed compounds in the presence of urease solution, and C (control) is the absorbance of the solvent in the presence of urease solution. Data were expressed as mean ± standard error (SD) and run in triplicate. […] Thiourea and hydroxyurea were used as the standard inhibitors for urease.

[4] = Jack bean urease, mean ± standard error of the mean, at least three experiments, read-out: IC50 against urease

T1 sequence (P07374 whole entry, looked up): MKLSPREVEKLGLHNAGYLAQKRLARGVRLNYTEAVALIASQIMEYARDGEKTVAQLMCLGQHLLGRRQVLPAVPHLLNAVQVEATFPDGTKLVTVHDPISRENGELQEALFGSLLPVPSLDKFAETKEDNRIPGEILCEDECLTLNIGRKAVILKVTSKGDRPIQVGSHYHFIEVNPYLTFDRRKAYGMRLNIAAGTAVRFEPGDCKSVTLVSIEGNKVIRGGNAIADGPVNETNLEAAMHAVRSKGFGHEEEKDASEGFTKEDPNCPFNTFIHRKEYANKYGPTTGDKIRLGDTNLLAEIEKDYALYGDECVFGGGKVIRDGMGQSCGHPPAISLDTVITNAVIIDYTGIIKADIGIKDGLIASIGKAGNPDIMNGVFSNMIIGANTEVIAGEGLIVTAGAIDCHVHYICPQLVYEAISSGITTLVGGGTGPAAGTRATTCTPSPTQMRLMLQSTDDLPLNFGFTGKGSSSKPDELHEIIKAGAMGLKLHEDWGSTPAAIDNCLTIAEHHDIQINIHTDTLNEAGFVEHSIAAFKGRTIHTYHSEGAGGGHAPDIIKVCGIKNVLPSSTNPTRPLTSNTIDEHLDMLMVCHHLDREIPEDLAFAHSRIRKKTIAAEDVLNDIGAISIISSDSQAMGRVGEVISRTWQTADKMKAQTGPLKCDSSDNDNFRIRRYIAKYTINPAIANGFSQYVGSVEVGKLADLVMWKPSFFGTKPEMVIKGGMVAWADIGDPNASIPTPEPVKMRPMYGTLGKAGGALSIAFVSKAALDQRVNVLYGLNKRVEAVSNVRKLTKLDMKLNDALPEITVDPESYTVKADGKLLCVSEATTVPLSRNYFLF

Compound | IC50 [1, 4] [nM] | also measured
CN1C(=O)C(=CN/N=C/c2cc(Cl)ccc2[N+](=O)[O-])C(=O)N(C)C1=O [Compound 7l, (E)-5-((2-(5-chloro-2-nitrobenzylidene)hydrazinyl)methylene)-1,3-dimethylpyrimidine-2,4,6(1H,3H,5H)-trione] | 1340 ± 120 | –
CN1C(=O)C(=CN/N=C/c2cccc(Oc3ccccc3)c2)C(=O)N(C)C1=O [Compound 7e, (E)-1,3-dimethyl-5-((2-(3-phenoxybenzylidene)hydrazinyl)methylene)pyrimidine-2,4,6(1H,3H,5H)-trione] | 2850 ± 230 | –
CN1C(=O)C(=CN/N=C/c2ccccc2)C(=O)N(C)C1=O [Compound 7a, (E)-5-((2-benzylidenehydrazinyl)methylene)-1,3-dimethylpyrimidine-2,4,6(1H,3H,5H)-trione] | 4430 ± 210 | –
CN1C(=O)C(=CN/N=C/c2ccc(Cl)cc2)C(=O)N(C)C1=O [Compound 7f, (E)-5-((2-(4-chlorobenzylidene)hydrazinyl)methylene)-1,3-dimethylpyrimidine-2,4,6(1H,3H,5H)-trione] | 3560 ± 160 | –
CN1C(=O)C(=CN/N=C/c2cccc(Cl)c2Cl)C(=O)N(C)C1=O [Compound 7j, (E)-5-((2-(2,3-dichlorobenzylidene)hydrazinyl)methylene)-1,3-dimethylpyrimidine-2,4,6(1H,3H,5H)-trione] | 4520 ± 310 | –
CN1C(=O)C(=CN/N=C/c2ccc(Cl)s2)C(=O)N(C)C1=O [Compound 7n, (E)-5-((2-((5-chlorothiophen-2-yl)methylene)hydrazinyl)methylene)-1,3-dimethylpyrimidine-2,4,6(1H,3H,5H)-trione] | 4560 ± 180 | –
CN1C(=O)C(=CN/N=C/c2ccc([N+](=O)[O-])cc2)C(=O)N(C)C1=O [Compound 7i, (E)-1,3-dimethyl-5-((2-(4-nitrobenzylidene)hydrazinyl)methylene)pyrimidine-2,4,6(1H,3H,5H)-trione] | 1310 ± 90 | decrease of inhibitory activity relative to 2-nitro derivative 7h ([1]; urease IC50 compared with 7h): about two
CN1C(=O)C(=CN/N=C/c2cc([N+](=O)[O-])ccc2Cl)C(=O)N(C)C1=O [Compound 7k, (E)-5-((2-(2-chloro-5-nitrobenzylidene)hydrazinyl)methylene)-1,3-dimethylpyrimidine 2,4,6(1H,3H,5H)-trione] | 3940 ± 250 | –
CN1C(=O)C(=CN/N=C/c2ccccc2O)C(=O)N(C)C1=O [Compound 7b, (E)-5-((2-(2-hydroxybenzylidene)hydrazinyl)methylene)-1,3-dimethylpyrimidine-2,4,6(1H,3H,5H)-trione] | 3090 ± 130 | –
CN1C(=O)C(=CN/N=C/c2cccs2)C(=O)N(C)C1=O [Compound 7m, (E)-1,3-dimethyl-5-((2-(thiophen-2-ylmethylene)hydrazinyl)methylene)pyrimidine2,4,6(1H,3H,5H)-trione] | 860 ± 80 | –
CN1C(=O)C(=CN/N=C/c2cccc3ccccc23)C(=O)N(C)C1=O [Compound 7o, (E)-1,3-dimethyl-5-((2-(naphthalen-1-ylmethylene)hydrazinyl)methylene)pyrimidine-2,4,6(1H,3H,5H)-trione] | – | IC50 [1]: 1940 ± 220 nM
NC(=O)NO [Hydroxyurea, reference compound] | 100000 ± 150 | experimental solubility [2]: 100 mg/mL
CN1C(=O)C(=CN/N=C/c2cccc(Br)c2)C(=O)N(C)C1=O [Compound 7g, (E)-5-((2-(3-bromobenzylidene)hydrazinyl)methylene)-1,3-dimethylpyrimidine-2,4,6(1H,3H,5H)-trione] | 3620 ± 190 | –
NC(N)=S [Thiourea, reference compound] | 23000 ± 1700 | –
CN1C(=O)C(=CN/N=C/c2ccccc2[N+](=O)[O-])C(=O)N(C)C1=O [Compound 7h, (E)-1,3-dimethyl-5-((2-(2-nitrobenzylidene)hydrazinyl)methylene)pyrimidine-2,4,6(1H,3H,5H)-trione] | – | IC50 [1]: 610 ± 60 nM; activity fold superior to parent phenyl derivative 7a ([1]; ratio of urease IC50 values): 7.2 fold; times more potent than thiourea ([1]; ratio of urease IC50 values): 37.7 times; melting point: 178 to 180 °C; Ki [3]: 820 nM; inhibition mode ([3]; Lineweaver–Burk plot): mixed-type inhibitor; also recorded: mix-mode inhibitor
COc1cc(/C=N/NC=C2C(=O)N(C)C(=O)N(C)C2=O)cc(OC)c1OC [Compound 7d, (E)-1,3-dimethyl-5-((2-(3,4,5-trimethoxybenzylidene)hydrazinyl)methylene)pyrimidine-2,4,6(1H,3H,5H)-trione] | 2530 ± 110 | –
CN1C(=O)C(=CN/N=C/c2ccc(O)cc2O)C(=O)N(C)C1=O [Compound 7c, (E)-5-((2-(2,4-dihydroxybenzylidene)hydrazinyl)methylene)-1,3-dimethylpyrimidine-2,4,6(1H,3H,5H)-trione] | 1200 ± 50 | –
